Laboratory results taken from ChEMBL document CHEMBL1148069, “The punaglandins: 10-chloroprostanoids from the octocoral Telesto riisei” (J Nat Prod, 1994).
Active and inactive are the calls of the source. The calls are words filed in the database; no cut-off is given here.

Experiments:
L1210 = experiment: Cytotoxicity against mouse L1210 cells; type: functional, cell-based
Ehrlich = experiment: Cytotoxicity against mouse EAC cells; type: functional, cell-based

With CC/C=C\C/C=C\C[C@@]1(O)C=C(Cl)C(=O)/C1=C/[C@H](OC(C)=O)[C@H](CCCC(=O)OC)OC(C)=O the Activity (L1210) was “Active” and the Activity (Ehrlich) was “Active”.
In the case of CCCCC/C=C\C[C@@]1(O)C=C(Cl)C(=O)/C1=C/[C@H](OC(C)=O)[C@H](CCCC(=O)OC)OC(C)=O, the Activity (L1210) is reported as “Active” and the Activity (Ehrlich) is reported as “Active”.
